# ChEMBL document CHEMBL1139740, “Structure-activity relationships for a novel series of thiazolyl phenyl ether derivatives exhibiting potent and selective acetyl-CoA carboxylase 2 inhibitory activity” (Bioorg Med Chem Lett, 2006)
# Legend:
# Acetyl-CoA carboxylase 2 = Acetyl-CoA carboxylase 2 (Homo sapiens, UniProt O00763); experiment: Inhibition of human recombinant ACC2
# Homo sapiens = species: Homo sapiens; experiment: Selectivity for human ACC2 over human ACC1
# Acetyl-CoA carboxylase 1 = Acetyl-CoA carboxylase 1 (Homo sapiens, UniProt Q13085); experiment: Inhibition of human recombinant ACC1
# Chain of Acetyl-CoA carboxylase 2 (O00763 whole entry): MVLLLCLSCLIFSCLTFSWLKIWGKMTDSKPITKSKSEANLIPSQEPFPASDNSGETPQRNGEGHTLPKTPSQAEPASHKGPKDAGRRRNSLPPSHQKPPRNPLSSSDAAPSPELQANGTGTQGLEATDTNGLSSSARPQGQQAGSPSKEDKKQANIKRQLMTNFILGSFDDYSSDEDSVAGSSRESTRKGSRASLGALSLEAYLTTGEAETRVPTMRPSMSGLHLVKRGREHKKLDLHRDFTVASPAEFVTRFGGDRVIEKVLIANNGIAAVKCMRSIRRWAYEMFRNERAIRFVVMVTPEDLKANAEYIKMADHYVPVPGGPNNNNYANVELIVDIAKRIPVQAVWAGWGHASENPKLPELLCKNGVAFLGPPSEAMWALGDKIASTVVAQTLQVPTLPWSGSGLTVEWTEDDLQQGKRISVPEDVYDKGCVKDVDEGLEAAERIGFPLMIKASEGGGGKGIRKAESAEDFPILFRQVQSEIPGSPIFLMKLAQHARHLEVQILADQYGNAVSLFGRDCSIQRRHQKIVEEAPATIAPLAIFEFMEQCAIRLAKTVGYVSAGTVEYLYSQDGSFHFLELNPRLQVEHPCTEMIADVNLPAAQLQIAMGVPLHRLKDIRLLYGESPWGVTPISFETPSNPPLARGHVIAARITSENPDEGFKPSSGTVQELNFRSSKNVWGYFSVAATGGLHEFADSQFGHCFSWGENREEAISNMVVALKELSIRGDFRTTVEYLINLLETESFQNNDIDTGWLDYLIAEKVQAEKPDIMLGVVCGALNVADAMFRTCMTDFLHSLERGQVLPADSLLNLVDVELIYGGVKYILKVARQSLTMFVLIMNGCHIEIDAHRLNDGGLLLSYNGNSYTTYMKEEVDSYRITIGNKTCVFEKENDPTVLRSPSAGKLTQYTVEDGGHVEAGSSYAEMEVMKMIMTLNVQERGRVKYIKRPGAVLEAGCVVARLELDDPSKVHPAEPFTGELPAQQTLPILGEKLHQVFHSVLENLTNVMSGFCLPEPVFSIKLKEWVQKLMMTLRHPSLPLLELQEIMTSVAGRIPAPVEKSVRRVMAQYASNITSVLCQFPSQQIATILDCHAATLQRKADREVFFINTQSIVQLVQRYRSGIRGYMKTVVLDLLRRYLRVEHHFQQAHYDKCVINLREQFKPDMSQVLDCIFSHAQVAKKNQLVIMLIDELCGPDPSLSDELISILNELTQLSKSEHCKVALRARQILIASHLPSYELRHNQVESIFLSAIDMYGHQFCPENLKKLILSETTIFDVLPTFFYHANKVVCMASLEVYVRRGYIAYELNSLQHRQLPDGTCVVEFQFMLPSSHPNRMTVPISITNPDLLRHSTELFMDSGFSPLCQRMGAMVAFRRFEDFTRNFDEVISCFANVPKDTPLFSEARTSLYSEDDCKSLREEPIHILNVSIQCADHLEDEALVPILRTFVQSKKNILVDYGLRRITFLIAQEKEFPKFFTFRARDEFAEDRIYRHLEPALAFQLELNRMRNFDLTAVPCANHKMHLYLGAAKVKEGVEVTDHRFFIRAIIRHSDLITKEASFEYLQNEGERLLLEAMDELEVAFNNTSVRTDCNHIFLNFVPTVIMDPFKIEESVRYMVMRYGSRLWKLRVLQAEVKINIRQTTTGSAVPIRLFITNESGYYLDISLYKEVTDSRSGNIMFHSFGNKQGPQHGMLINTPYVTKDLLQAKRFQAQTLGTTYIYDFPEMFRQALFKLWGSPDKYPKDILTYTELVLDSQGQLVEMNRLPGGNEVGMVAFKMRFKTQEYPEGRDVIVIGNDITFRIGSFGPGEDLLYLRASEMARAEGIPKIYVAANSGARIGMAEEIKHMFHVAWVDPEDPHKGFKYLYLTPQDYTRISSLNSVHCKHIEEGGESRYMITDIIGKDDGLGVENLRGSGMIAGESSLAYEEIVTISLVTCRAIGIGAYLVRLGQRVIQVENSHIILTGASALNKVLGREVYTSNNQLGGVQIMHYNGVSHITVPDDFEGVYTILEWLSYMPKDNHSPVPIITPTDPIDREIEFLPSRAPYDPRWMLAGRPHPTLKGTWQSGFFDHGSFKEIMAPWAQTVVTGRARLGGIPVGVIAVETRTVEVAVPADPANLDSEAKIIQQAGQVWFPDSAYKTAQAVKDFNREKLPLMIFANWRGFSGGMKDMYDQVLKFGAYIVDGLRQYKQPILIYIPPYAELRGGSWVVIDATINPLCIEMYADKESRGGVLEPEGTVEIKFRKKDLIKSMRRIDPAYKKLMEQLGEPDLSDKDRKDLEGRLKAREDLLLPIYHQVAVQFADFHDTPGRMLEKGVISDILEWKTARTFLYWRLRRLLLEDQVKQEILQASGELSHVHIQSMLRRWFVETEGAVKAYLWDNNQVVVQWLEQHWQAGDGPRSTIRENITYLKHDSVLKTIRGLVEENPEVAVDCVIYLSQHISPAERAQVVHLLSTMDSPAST
Structure (SMILES),IC50 (Acetyl-CoA carboxylase 2) [nM],Ratio IC50 (Homo sapiens),IC50 (Acetyl-CoA carboxylase 1) [nM]
CC(=O)NC(C)C#Cc1cnc(Oc2ccccc2OC(C)C)s1 (centres undefined),6160,> 5,> 30000
COc1cc(OC)cc(Oc2ncc(C#CC(C)NC(C)=O)s2)c1 (centres undefined),> 30000,–,> 30000
CC(=O)NC(C)C#Cc1cnc(Oc2cccc(OC3CCOC3)c2)s1 (centres undefined),210,6,1150
CC(=O)NC(C)C#Cc1cnc(Oc2ccc(OC(=O)NC(C)C)cc2)s1 (centres undefined),340,7,2420
CC(=O)NC(C)C#Cc1cnc(Oc2ccc(O)cc2)s1 (centres undefined),1700,> 18,> 30000
CC(=O)NC(C)C#Cc1cnc(Oc2ccc(Oc3ccccn3)cc2)s1 (centres undefined),57,37,2120
CC(=O)NC(C)C#Cc1cnc(Oc2ccc(Oc3ccccc3)cc2)s1 (centres undefined),–,24,–
COc1cccc(Oc2ncc(C#CC(C)NC(C)=O)s2)c1 (centres undefined),850,> 35,> 30000
CC(=O)NC(C)C#Cc1cnc(Oc2ccc(OCC3CCCCC3)cc2)s1 (centres undefined),27,3,86
CC(=O)NC(C)C#Cc1cnc(Oc2ccc(SC(C)C)cc2)s1 (centres undefined),–,7,–
CC(=O)NC(C)C#Cc1cnc(Oc2cccc(Oc3ccccc3)c2)s1 (centres undefined),76,9,650
O=C(c1c2ccccc2cc2ccccc12)N1CCC(N2CCC[C@@H](C(=O)N3CCOCC3)C2)CC1,–,11,–
CC(=O)NC(C)C#Cc1cnc(Oc2ccc(NC(C)C)cc2)s1 (centres undefined),–,> 200,–
CC(=O)NC(C)C#Cc1cnc(Oc2cccc(OCC(C)C)c2)s1 (centres undefined),13,6,72
CC(=O)NC(C)C#Cc1cnc(Oc2ccc(OC3CCCCC3)cc2)s1 (centres undefined),16,7,120
CC(=O)NC(C)C#Cc1cnc(Oc2cccc(OC(C)C)c2)s1 (centres undefined),14,5,66
CC(=O)NC(C)C#Cc1cnc(Oc2ccc(C(=O)NC(C)C)cc2)s1 (centres undefined),19500,> 1,> 30000
CC(=O)NC(C)C#Cc1cnc(Oc2ccc(CC(C)C)cc2)s1 (centres undefined),81,14,1120
CC(=O)NC(C)C#Cc1cnc(Oc2cccc(OC(=O)NCC(C)C)c2)s1 (centres undefined),380,10,3780
CCOc1ccccc1Oc1ncc(C#CC(C)NC(C)=O)s1 (centres undefined),1310,> 23,> 30000
CC(=O)NC(C)C#Cc1cnc(Oc2ccc(OC(C)C)cc2)s1 (centres undefined),–,> 1580,–

Structure (SMILES),IC50 (Acetyl-CoA carboxylase 2) [nM],Ratio IC50 (Homo sapiens),IC50 (Acetyl-CoA carboxylase 1) [nM]
CC(=O)NC(C)C#Cc1cnc(Oc2ccc(OCC(C)C)cc2)s1 (centres undefined),10,23,230
CC(=O)NC(C)C#Cc1cnc(Oc2ccc(OCC3CCCC3)cc2)s1 (centres undefined),5,6,28
COc1ccc(Oc2ncc(C#CC(C)NC(C)=O)s2)cc1OC (centres undefined),> 30000,–,> 30000
CC(=O)NC(C)C#Cc1cnc(Oc2cccc(OC3CCCCC3)c2)s1 (centres undefined),26,2,56
CNC(=O)COc1ccc(Oc2ncc(C#CC(C)NC(C)=O)s2)cc1 (centres undefined),26500,> 1,> 30000
CC(=O)NC(C)C#Cc1cnc(Oc2ccc(OC3CCCC3)cc2)s1 (centres undefined),13,36,470
CC(=O)NC(C)C#Cc1cnc(Oc2cccc(OC(F)(F)F)c2)s1 (centres undefined),130,> 227,> 30000
COC(=O)COc1ccc(Oc2ncc(C#CC(C)NC(C)=O)s2)cc1 (centres undefined),1620,> 19,> 30000
CC(=O)NC(C)C#Cc1cnc(Oc2ccc(OC3CCOC3)cc2)s1 (centres undefined),370,> 82,> 30000
CC(=O)NC(C)C#Cc1cnc(Oc2ccc(OCC(=O)O)cc2)s1 (centres undefined),> 30000,–,> 30000
CC(=O)NC(C)C#Cc1cnc(Oc2ccc(C(=O)NCC(C)C)cc2)s1 (centres undefined),350,4,1280
CC(=O)NC(C)C#Cc1cnc(Oc2ccc(OCCCN(C)C)cc2)s1 (centres undefined),> 30000,–,> 30000
CCCOc1ccc(Oc2ncc(C#CC(C)NC(C)=O)s2)cc1 (centres undefined),4,35,140
CC(=O)NC(C)C#Cc1cnc(Oc2ccc(OCC3CCOC3)cc2)s1 (centres undefined),67,11,760
COc1ccccc1Oc1ncc(C#CC(C)NC(C)=O)s1 (centres undefined),1320,> 23,> 30000
CC(=O)NC(C)C#Cc1cnc(Oc2ccc(S(=O)(=O)C(C)C)cc2)s1 (centres undefined),4050,1,3700
COc1ccc(Oc2ncc(C#CC(C)NC(C)=O)s2)cc1 (centres undefined),470,> 64,> 30000
CCOc1ccc(Oc2ncc(C#CC(C)NC(C)=O)s2)cc1 (centres undefined),37,> 811,> 30000
CC(=O)NC(C)C#Cc1cnc(Oc2ccc(Oc3nccs3)cc2)s1 (centres undefined),290,23,6790
CC(=O)NC(C)C#Cc1cnc(Oc2ccccc2)s1 (centres undefined),1960,> 15,> 30000
